Assay [1] deals with Angiotensin Converting Enzyme (Homo sapiens, UniProt P12821). The assay can be described thus: ACE inhibitory activity with Hippuryl-His-Leu substrate, absorbance at 228 nm. In kind it is biochemical. On the procedure: Each of the peptides of SEQ ID NOs:1 to 7 was synthesized using an automatic peptide synthesizer. It was confirmed by reverse phase HPLC that the purity of each of the thus obtained peptides is 95%. Each of these synthetic peptides was dissolved in 0.1 M borate buffer (pH 8.3). Subsequently, 0.1 ml of an enzyme solution (Angiotensin Converting Enzyme: 2 units/ml) and 0.04 ml of each of the sample solutions were mixed therewith, followed by heating to 37° C. A 0.1 ml portion of a substrate solution (Hippuryl-His-Leu; N-Benzoyl-Gly-His-Leu) was added thereto, followed by thorough stirring. After allowing the mixture to react at 37° C. for 60 minutes, the reaction was stopped by adding 0.13 ml of 1 N hydrochloric acid. Then, 0.85 ml of ethyl acetate was added thereto, followed by shaking for 1 minute, and then the mixture was centrifuged at 3,000 rpm for 10 minutes. A 0.7 ml portion of the supernatant was recovered, and the solvent was removed using a centrifugal evaporator (about 30 minutes). The residual matters were dissolved by adding 0.5 ml of distilled water, and the absorbance at a wavelength of 228 nm was measured.
The activity of inhibiting ACE (%) was calculated by the following mathematical expression 1. Activity of inhibiting ACE(%)={(A−B)−(C−D)}/(A−B)×100 Mathematical expression 1
In this connection, A in the expression is absorbance of the control when the enzyme is used, B is the absorbance of the control when the enzyme is not used, C is absorbance of the sample when the enzyme is used, and D is absorbance of the sample when the enzyme is not used. In addition, 0.1 M borate buffer was used in the control instead of the sample solution.
Based on the thus obtained ACE inhibitory activities, IC50 of each peptide was calculated.
ACE inhibitory activities (%) of the 4 peptides, Leu-Met-Ala-Pro (SEQ ID NO:4), Arg-Met-Ala-Pro (SEQ ID NO:5), Met-Ala-Pro-Pro (SEQ ID NO:6) and Arg-Met-Ala-Pro-Pro (SEQ ID NO:7), which have Met-Ala-Pro as a partial structure, were obtained by the same method of Example 2, and their IC50's were calculated.

In a further assay the target is ACE (Homo sapiens, UniProt P12821). Conditions: known ACE-inhibiting peptides from casein and corn protein α-zein; cited from earlier work.
The mark [2] stands for this setting: peptides having Met-Ala-Pro as a partial structure, same method as Example 2, Table 2.
[3] abbreviates: synthetic peptide, 0.1 M borate buffer pH 8.3, 37° C., 60 minutes, Table 1.

Where a SMILES comes first, the peptide text is derived from it. Where no end group is shown, it is not given here.

One may read the IC50 as the concentration at which inhibition is half-maximal.

Angiotensin Converting Enzyme, sequence (P12821 30-1306, species assumed): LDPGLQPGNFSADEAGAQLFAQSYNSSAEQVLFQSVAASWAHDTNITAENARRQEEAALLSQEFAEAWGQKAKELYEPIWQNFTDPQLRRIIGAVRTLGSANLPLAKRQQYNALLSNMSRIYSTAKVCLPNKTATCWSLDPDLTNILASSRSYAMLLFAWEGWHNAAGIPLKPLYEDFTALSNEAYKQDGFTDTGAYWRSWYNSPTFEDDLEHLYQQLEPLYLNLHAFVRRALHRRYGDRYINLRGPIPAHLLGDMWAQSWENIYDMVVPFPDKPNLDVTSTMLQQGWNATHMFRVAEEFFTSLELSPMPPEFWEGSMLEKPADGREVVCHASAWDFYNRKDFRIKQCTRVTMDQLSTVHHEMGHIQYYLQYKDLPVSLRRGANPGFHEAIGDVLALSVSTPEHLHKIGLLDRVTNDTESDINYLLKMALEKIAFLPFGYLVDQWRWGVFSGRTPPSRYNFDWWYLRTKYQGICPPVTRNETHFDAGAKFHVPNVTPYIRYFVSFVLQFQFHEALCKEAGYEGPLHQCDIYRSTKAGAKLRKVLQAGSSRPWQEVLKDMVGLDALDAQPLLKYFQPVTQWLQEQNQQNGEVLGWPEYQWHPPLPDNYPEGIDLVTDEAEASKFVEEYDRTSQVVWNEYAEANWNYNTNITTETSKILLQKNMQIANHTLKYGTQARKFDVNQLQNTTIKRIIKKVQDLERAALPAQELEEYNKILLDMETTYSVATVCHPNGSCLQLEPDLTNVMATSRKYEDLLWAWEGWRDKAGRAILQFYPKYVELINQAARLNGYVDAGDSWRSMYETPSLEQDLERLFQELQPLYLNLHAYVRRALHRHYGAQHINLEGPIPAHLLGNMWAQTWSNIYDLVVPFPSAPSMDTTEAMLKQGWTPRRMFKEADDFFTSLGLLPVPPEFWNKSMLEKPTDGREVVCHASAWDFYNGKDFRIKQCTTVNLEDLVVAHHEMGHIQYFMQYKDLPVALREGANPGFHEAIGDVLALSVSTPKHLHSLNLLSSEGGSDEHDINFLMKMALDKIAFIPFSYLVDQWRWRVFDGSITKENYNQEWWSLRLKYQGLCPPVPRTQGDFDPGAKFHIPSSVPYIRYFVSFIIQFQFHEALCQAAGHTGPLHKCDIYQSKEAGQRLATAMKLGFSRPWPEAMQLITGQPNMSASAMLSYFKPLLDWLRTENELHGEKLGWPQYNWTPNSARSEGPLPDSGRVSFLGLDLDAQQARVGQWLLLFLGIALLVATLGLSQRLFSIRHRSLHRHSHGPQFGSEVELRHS
ACE, sequence (P12821 30-1306, species assumed): as above

Regarding `CSCC[C@H](NC(=O)[C@@H](N)CCCNC(=N)N)C(=O)N[C@@H](C)C(=O)N1CCC[C@H]1C(=O)O` [Arg-Met-Ala-Pro] (H-RMAP-OH; N-terminus and C-terminus assumed), the IC50 in assay [1] (setting [2]) was found to be 24 µM.

As for `CC[C@H](C)[C@H](N)C(=O)N[C@@H](CCC(N)=O)C(=O)N[C@@H](C)C(=O)O` [Ile-Gln-Ala] (H-Ile-Gln-Ala-OH; N-terminus and C-terminus assumed), half-maximal inhibition in assay [1] (setting [3]) (IC50) required 64.1 µM.

In assay [1] (setting [3]), `CC[C@H](C)[C@H](N)C(=O)N[C@@H](Cc1c[nH]cn1)C(=O)N[C@@H](C)C(=O)O` [Ile-His-Ala] (H-Ile-His-Ala-OH; N-terminus and C-terminus assumed) returned an IC50 of 394 µM.

In turn, `CSCC[C@H](NC(=O)[C@@H](N)CC(C)C)C(=O)N[C@@H](C)C(=O)N1CCC[C@H]1C(=O)O` [Leu-Met-Ala-Pro] (H-LMAP-OH; N-terminus and C-terminus assumed) gave an IC50 in assay [1] (setting [2]) of 27.9 µM.

Compound `CSCC[C@H](N)C(=O)N[C@@H](C)C(=O)N1CCC[C@H]1C(=O)N1CCC[C@H]1C(=O)O` [Met-Ala-Pro-Pro] (H-MAPP-OH; N-terminus and C-terminus assumed) registered an IC50 in assay [1] (setting [2]) of 28.3 µM.

Consider “Ile-Pro-Pro [IPP, casein-derived peptide]”, for which the IC50 on ACE was 5 µM.

On to “Leu-Gln-Pro [LQP, corn protein α-zein-derived peptide]”, for which, on ACE, the IC50 was 2 µM.

In assay [1] (setting [2]), RMAPP [Arg-Met-Ala-Pro-Pro] came in with an IC50 of 255 µM.

As to “Val-Ala-Pro [VAP, casein-derived peptide]”, the IC50 at ACE was 2 µM.

As for Val-Pro-Pro [VPP], on ACE, the IC50 is 9 µM.

(Values after patent US8637463B2, “Peptide inhibiting angiotensin converting enzyme” (Meiji Dairies Corporation, priority 2003, dated 2014).)
